The numbers were not newly measured in patent publication US7943127B2 (priority 2004, dated 2011), which cites them from elsewhere.

Molecules are shown by their SMILES.

For the data set the following is noted: in vivo, iv.

For the compound `COc1cc(CNC(=O)CCCC/C=C/C(C)C)ccc1O` [Capsaicin, (E)-N-((4-Hydroxy-3-methoxyphenyl)-methyl)-8-methyl-6-nonenamide], the lethal toxic dose result is “about 0.56 mg/kg”.
